We go through three compounds from US20050222274A1 (priority 2002, published 2005).

For data set [1] the following is noted: usual extraction and storage conditions; cited from earlier work.
Data set [2] has as its system release of APPs produced by α-secretase. The data set is described as follows: release of APPs in the culture medium of neuroblastoma cell line SH-SY5Y. As to conditions: 10 μM; APPs secreted in culture medium of SH-SY5Y; controls = 100. The format is cell-based. Here is the method:
It is in fact known that proteolytic cleavage of Alzheimer Precursor Protein (APP) is mediated both by β- and γ-secretase, inducing an increased production of amyloid peptide Ab1-42 (which also plays a central role in the appearance of Alzheimer's disease), and […], giving raise to soluble APPs which have no pathogenic activity (Eslr W. P., Wolfe M. S., Science, 293, 1449-54, 2001).
The effect of the compounds of the invention on the release of APPs produced by α-secretase was evaluated in the culture medium of a neuroblastoma cell line (SH-SY5Y) according to the procedure described by Galbete J. L. et al. in Biochem J. 348, 307-313, 2000.

Regarding `CC(C)=CCC[C@]1(C)[C@@H](CC=C(C)C)C[C@@]2(CC=C(C)C)C(=O)[C@]1(C(=O)C(C)C)C(=O)C(CC=C(C)C)=C2O` [Hyperforin], the “stability (in words)” value in data set [1] was “poorly stable”. The compound further yielded an APPs % in data set [2] of 296%.
Consider 8-chlorooctahydrohyperforin, for which, in data set [2], the APPs % is recorded as 855%.
Still for that read-out and setting: the same measure for `CC(C)=CCC[C@]1(C)[C@@H](CC=C(C)C)C[C@]2(CC=C(C)C)C(=O)C(Cl)(CC=C(C)C)C(=O)[C@@]1(C(=O)C(C)C)C2=O` (stereo partly shown) [Chlorohyperforin, 8-chlorohyperforin]: 627%.
